How the values were obtained:
[1] = system: FAO cells (well differentiated hepatoma cell line); assay: Inhibition of gluconeogenesis assay (glucose secretion into the medium); format: cell-based; conditions: FIG. 4
Procedure: This assay was carried out on confluent monolayers of a well differentiated hepatoma cell line (Lauris et al. Endocrinology 118:2519-2524 (1986)) in which glucose production was monitored with a commercial glucose oxidase kit (Sigma kit no. 510-A, Sigma Technical Bulletin 510, 1983). Inhibition of glucose secretion into the medium was determined as a function of the concentration of insulin or insulin analogue, and the relative potency of the analogue was defined as the ratio of the concentration of insulin to analogue required to produce half-maximal inhibition of glucose production. The cell culture and glucose production was carried out as described by Lauris et al., supra.
The potency of the synthetic insulin in inhibiting gluconeogenesis is calculated to be about 90% relative to the natural hormone.

isolated rat adipocytes = assay: Lipogenesis assay: conversion of [3-3H] glucose into lipids; format: cell-based; conditions: FIG. 3
Excerpt: In this Example the materials used and the analytical procedures followed are those found in Kitagawa et al., Biochemistry, 23: 1405-1413 (1984). ^125 I-insulin for receptor binding studies and [3-^3 H] glucose for lipogenesis were obtained from DuPont NEN Research Products. Cellulose acetate membrane filters, 0.2 μm pore size, were products of Sartorius. Glass-fiber filters, Type GFC, were from Whatman. Collagenase, Type II crude, was obtained from Worthington. The scintillation fluids Filtron-X®, Hydrofluor® and Soluscint-O® were products of National Diagnostics. Crystalline bovine insulin was from Sigma, and fatty-acid free bovine serum albumin from Boehringer - Mannheim Biochemicals.
The data points represent the mean triplicate determinations in representative assays performed four times.

[Trp^14 -A] insulin
Concentration of agonist producing half-maximal inhibition of gluconeogenesis compared with insulin [1]: approximately the same concentration | Maximum inhibition of gluconeogenesis compared with insulin [1]: same maximum inhibition | Concentration of agonist producing half-maximal stimulation of lipogenesis compared with bovine insulin (isolated rat adipocytes): about twice the concentration | Maximum stimulation of lipogenesis compared with bovine insulin (isolated rat adipocytes): same maximum stimulation

— US5208217A, “Hepatospecific insulin analogues” (Mount Sinai School of Medicine of The City University of …, priority 1991, dated 1993)
